The values below come from PubChem BioAssay AID330 (DTP/NCI, 2004).

The test deals with P388 leukemia ip, CD2F1 mice, survival T/C. Kind of test: NCI In Vivo Anticancer Drug Screen. Data for tumor model P388 Leukemia (intraperitoneal) in CD2F1 (CDF1) mice. The conditions noted are these: endpoint: median survival time, higher = longer survival. Put shortly:
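Mice carrying the transplanted tumor received test compound or vehicle. Survival was recorded in each group, and the value is the treated-group measurement divided by that of the vehicle-treated control group.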

Where [1] appears, read: dose: 50.0 mg/kg/injection, schedule: Q01DX005 (ip), vehicle: Klucel (hydroxypropylcellulose) (HPC).
Where [2] appears, read: dose: 100.0 mg/kg/injection, schedule: Q01DX005 (ip), vehicle: Klucel (hydroxypropylcellulose) (HPC).
Setting [3] is: dose: 100.0 mg/kg/injection, schedule: Q04DX003 (ip), vehicle: saline.
[4] abbreviates: dose: 200.0 mg/kg/injection, schedule: Q04DX003 (ip), vehicle: saline.
[5] abbreviates: dose: 50.0 mg/kg/injection, schedule: Q01DX009 (ip), vehicle: Klucel (hydroxypropylcellulose) (HPC).
[6] abbreviates: dose: 60.0 mg/kg/injection, schedule: Q01DX005 (ip), vehicle: saline.
The mark [7] stands for this setting: dose: 120.0 mg/kg/injection, schedule: Q01DX005 (ip), vehicle: saline.
[8] abbreviates: dose: 60.0 mg/kg/injection, schedule: Q01DX005 (ip), vehicle: saline with Tween-80.
Where [9] appears, read: dose: 120.0 mg/kg/injection, schedule: Q01DX005 (ip), vehicle: saline with Tween-80.
Where [10] appears, read: dose: 240.0 mg/kg/injection, schedule: Q01DX005 (ip), vehicle: saline with Tween-80.
Setting [11] is: dose: 50.0 mg/kg/injection, schedule: Q01DX005 (ip), vehicle: saline.
The mark [12] stands for this setting: dose: 100.0 mg/kg/injection, schedule: Q01DX005 (ip), vehicle: saline.
Setting [13] is: dose: 6.25 mg/kg/injection, schedule: Q01DX009 (ip), vehicle: saline.
[14] abbreviates: dose: 12.5 mg/kg/injection, schedule: Q01DX009 (ip), vehicle: saline.
Where [15] appears, read: dose: 25.0 mg/kg/injection, schedule: Q01DX009 (ip), vehicle: saline.
Where [16] appears, read: dose: 50.0 mg/kg/injection, schedule: Q01DX009 (ip), vehicle: saline with Tween-80.
[17] abbreviates: dose: 100.0 mg/kg/injection, schedule: Q01DX009 (ip), vehicle: saline with Tween-80.
[18] abbreviates: dose: 200.0 mg/kg/injection, schedule: Q01DX005 (ip), vehicle: Klucel (hydroxypropylcellulose) (HPC).

Several values for one entry are separate records, joined by “and”; a condition that tells them apart may be missing. Equal values may be shown once. Inconclusive results and toxic doses are left out.

Regarding `C=CN1C(=O)NC2(CCCCC2)C1=O`, the T/C is 100 % of control (dose: 25.0 mg/kg/injection, schedule: Q04DX003 (ip), vehicle: saline with Tween-80); 100 % of control (dose: 50.0 mg/kg/injection, schedule: Q04DX003 (ip), vehicle: saline with Tween-80); 90 % of control (dose: 100.0 mg/kg/injection, schedule: Q04DX003 (ip), vehicle: saline with Tween-80).

As for `OCc1nc(-c2ccccc2)sc1-c1cnc2ccccc2n1`, the T/C (dose: 100.0 mg/kg/injection, schedule: Q04DX002 (ip), vehicle: Klucel (hydroxypropylcellulose) (HPC)) was 104 % of control; the T/C (dose: 200.0 mg/kg/injection, schedule: Q04DX002 (ip), vehicle: Klucel (hydroxypropylcellulose) (HPC)) is 99 % of control; the T/C (dose: 400.0 mg/kg/injection, schedule: Q04DX002 (ip), vehicle: Klucel (hydroxypropylcellulose) (HPC)) was 101 % of control.

In the case of `CCC(=O)/C=C/c1ccc(N(Cl)Cl)cc1`, the T/C is 107 % of control (dose: 25.0 mg/kg/injection, schedule: Q01DX001 (ip), vehicle: Klucel (hydroxypropylcellulose) (HPC)); 106 % of control (dose: 50.0 mg/kg/injection, schedule: Q01DX001 (ip), vehicle: Klucel (hydroxypropylcellulose) (HPC)); 104 % of control (dose: 100.0 mg/kg/injection, schedule: Q01DX001 (ip), vehicle: Klucel (hydroxypropylcellulose) (HPC)).

In the case of `Cc1c(C)n(-c2ccccc2)c2nc(C)n(-c3ccccc3Cl)c(=N)c12`, the T/C under setting [1] is 97 % of control and the T/C under setting [2] is 90 % of control.

Regarding `O=C(N/C(=C\c1ccccc1)C(=O)N1CCN(Cc2ccccc2)CC1)c1ccccc1`, the T/C is 89 % of control (dose: 50.0 mg/kg/injection, schedule: Q01DX005 (ip), vehicle: saline with Tween-80) and 88 % of control (dose: 100.0 mg/kg/injection, schedule: Q01DX005 (ip), vehicle: saline with Tween-80).

For the compound `CNCC(CO)C(C)(C)C` (stereo unspecified), the T/C reads like this: under setting [3], 101 % of control; under setting [4], 92 % of control.

On to `CCOc1ccc(-n2c(C)c(COC(=O)NC)c(COC(=O)NC)c2C)cc1`, for which the T/C reads like this: (dose: 12.5 mg/kg/injection, schedule: Q01DX009 (ip), vehicle: Klucel (hydroxypropylcellulose) (HPC)) 152 % of control and 166 % of control; (dose: 25.0 mg/kg/injection, schedule: Q01DX009 (ip), vehicle: Klucel (hydroxypropylcellulose) (HPC)) 150 % of control; under setting [5], 109 % of control.

With `COC(=O)/C=N/O`, the T/C under setting [6] was 99 % of control; the T/C under setting [7] is 102 % of control; the T/C (dose: 240.0 mg/kg/injection, schedule: Q01DX005 (ip), vehicle: saline) was 102 % of control.

As for `C/C(=C/C(=O)O)c1ccc([N+](=O)[O-])cc1`, the T/C reads like this: under setting [8], 94 % of control; under setting [9], 100 % of control; under setting [10], 101 % of control.

For `CN1COc2c(n(C)c(=O)[nH]c2=O)C1`, the T/C is 102 % of control and 106 % of control under setting [11]; 114 % of control and 115 % of control under setting [12].

Regarding `Nc1nc(N)c2cn[nH]c2n1`, the T/C was 95 % of control under setting [13]; 93 % of control under setting [14]; 100 % of control under setting [15]; 104 % of control (dose: 50.0 mg/kg/injection, schedule: Q01DX009 (ip), vehicle: saline).

`CCCCn1ccnc1C`: the T/C was 109 % of control under setting [13], 91 % of control under setting [14] and 103 % of control under setting [15].

Consider `O=C(COCC(=O)N/N=C/c1ccc(Cl)cc1)N/N=C/c1ccc(Cl)cc1`, for which the T/C (dose: 6.25 mg/kg/injection, schedule: Q01DX005 (ip), vehicle: saline with Tween-80) was 95 % of control; the T/C (dose: 12.5 mg/kg/injection, schedule: Q01DX005 (ip), vehicle: saline with Tween-80) was 95 % of control; the T/C (dose: 200.0 mg/kg/injection, schedule: Q01DX005 (ip), vehicle: saline with Tween-80) was 95 % of control.

As to `N#CC(C(=O)CCc1nc2ccccc2[nH]1)c1nc2ccccc2s1` (stereo unspecified), the T/C reads like this: under setting [8], 102 % of control; under setting [9], 100 % of control; under setting [10], 105 % of control.

Turning to `CCC[As](CCC)SCC1OC(OC(C)=O)C(OC(C)=O)C(OC(C)=O)C1OC(C)=O` (stereo unspecified), the T/C under setting [16] is 117 % of control and the T/C under setting [17] is 110 % of control.

Turning to `NC(=O)c1nnn2c1nc(N)c1cc(Cl)ccc12`, the T/C by setting is: under setting [1], 100 % of control; under setting [2], 104 % of control; under setting [18], 99 % of control.

As to `COc1ccc2cccc3c4cccc5ccc(OC)c(c1c23)c54`, the T/C was 97 % of control under setting [1], 99 % of control under setting [2] and 99 % of control under setting [18].

In the case of `C=C=CCC(=O)N1CCCC1`, the T/C by setting is: (dose: 50.0 mg/kg/injection, schedule: Q04DX002 (ip), vehicle: saline with Tween-80) 99 % of control; (dose: 100.0 mg/kg/injection, schedule: Q04DX002 (ip), vehicle: saline with Tween-80) 101 % of control; (dose: 200.0 mg/kg/injection, schedule: Q04DX002 (ip), vehicle: saline with Tween-80) 104 % of control.

As for `CC(C)(O)Cn1ccccc1=O`, the T/C under setting [3] was 98 % of control; the T/C under setting [4] was 97 % of control; the T/C (dose: 400.0 mg/kg/injection, schedule: Q04DX003 (ip), vehicle: saline) is 104 % of control.

Consider `CC1(C)CC(OS(=O)(=O)c2ccc(Br)cc2)CC(C)(C)N1O`, for which the T/C was 93 % of control under setting [5]; 99 % of control (dose: 100.0 mg/kg/injection, schedule: Q01DX009 (ip), vehicle: Klucel (hydroxypropylcellulose) (HPC)); 97 % of control (dose: 200.0 mg/kg/injection, schedule: Q01DX009 (ip), vehicle: Klucel (hydroxypropylcellulose) (HPC)).

With `CCCCNC(=O)N1C2C3CCC(C)(OC3(C)C)C21` (stereo unspecified), the T/C runs as follows: under setting [11], 101 % of control; under setting [12], 101 % of control; (dose: 200.0 mg/kg/injection, schedule: Q01DX005 (ip), vehicle: saline) 102 % of control.

In the case of `COc1ccc(NC(=O)CCC(=O)C(C)C(=O)c2ccccc2)cc1` (stereo unspecified), the T/C under setting [8] was 109 % of control, the T/C under setting [9] was 114 % of control and the T/C under setting [10] was 120 % of control.

As to `CCOC(=O)C1CCCN(C)C1` (stereo unspecified), the T/C is 104 % of control (dose: 100.0 mg/kg/injection, schedule: Q04DX003 (ip), vehicle: Klucel (hydroxypropylcellulose) (HPC)); 100 % of control (dose: 200.0 mg/kg/injection, schedule: Q04DX003 (ip), vehicle: Klucel (hydroxypropylcellulose) (HPC)); 100 % of control (dose: 400.0 mg/kg/injection, schedule: Q04DX003 (ip), vehicle: Klucel (hydroxypropylcellulose) (HPC)).

For `COC(=O)C1=C(C)NC(C)=C(C(=O)OC)C(N2C(=O)CCC2=O)C1` (stereo unspecified), the T/C (dose: 12.5 mg/kg/injection, schedule: Q01DX009 (ip), vehicle: saline with Tween-80) is 100 % of control; the T/C (dose: 25.0 mg/kg/injection, schedule: Q01DX009 (ip), vehicle: saline with Tween-80) is 91 % of control; the T/C under setting [16] is 88 % of control; the T/C under setting [17] is 88 % of control.

Consider `CC1(C)CC(=O)C2C(C1)OC1CC(C)(C)CC(=O)C1C2c1ccc2c(c1)OCO2` (stereo unspecified), for which the T/C was 104 % of control under setting [8], 100 % of control under setting [9] and 97 % of control under setting [10].

On to `CN(C)CC(CN(C)C)C(=O)C(C)(C)C`, for which the T/C is, setting by setting: (dose: 3.8 mg/kg/injection, schedule: Q01DX005 (ip), vehicle: saline) 99 % of control; (dose: 7.5 mg/kg/injection, schedule: Q01DX005 (ip), vehicle: saline) 96 % of control; (dose: 15.0 mg/kg/injection, schedule: Q01DX005 (ip), vehicle: saline) 93 % of control; (dose: 30.0 mg/kg/injection, schedule: Q01DX005 (ip), vehicle: saline) 105 % of control; under setting [6], 100 % of control and 104 % of control; under setting [7], 104 % of control and 110 % of control.

With `O=C1c2ccccc2-c2c1c1ccccc1c(=O)n2Cc1ccco1`, the T/C runs as follows: (dose: 0.75 mg/kg/injection, schedule: Q01DX005 (ip), vehicle: saline with Tween-80) 100 % of control; (dose: 1.5 mg/kg/injection, schedule: Q01DX005 (ip), vehicle: saline with Tween-80) 100 % of control; (dose: 3.0 mg/kg/injection, schedule: Q01DX005 (ip), vehicle: saline with Tween-80) 103 % of control.
